The values that follow come from patent publication US12139505B2, “Compositions useful in therapy of autophagy-related pathologies, and methods of making and using the same” (The University of Toledo, priority 2017, dated 2024).

Entries after “also recorded” stand apart in the source; their conditions may differ.

Holding throughout (format): in vivo, Drosophila melanogaster
The test system of series [1] is d42-Gal4;UAS-nSyb-GFPxUAS-C9orf72polyGR36 flies. The series is described as follows: Fly sleep behavior, C9orf72 ALS model. The procedure: The base for the food was a cornmeal agar product, Nutri-fly BF (Genesee Scientific, Box of 10, 1-liter bags, Cat #66-112). In a 2 L beaker, 1 L of ultrapure water was heated to […], with the stir bar speed set to 600. To the beaker, one bag of Nutri-fly BF was added in small portions. The beaker was covered to maintain temperature (monitored with an inserted thermometer) while stirring as rapidly as possible until the temperature reached 97° C. The food was stirred at this temperature for 10 minutes using a wooden spoon/spatula, then allowed to cool to approximately 65° C. with continuous stirring (magnetic bar). At 65° C., while maintaining constant stirring, 12 mL of Tegosept was added followed by 7 mL of propionic acid solution. To be used as fly maintenance food, the food was allowed to cool to 55° C. and 4 mL of the food was aliquoted (to a depth of approximately 1 inch) into individual vials with mity drosophila plugs (VWR #75813-162 and #10054-506). For use as a drug delivery vehicle, the food was allowed to cool to room temperature while covered with aluminum foil, then sealed with parafilm stored at 4° C. To prepare the food for drug delivery, the food was homogenized at room temperature with an immersion blender. To prepare the drug-infused-food, about half of the calculated food, accurately measured, was added to a 250 mL beaker, followed by the drug (no carrier solvent is used). The drug was then covered with the rest of the food and the contents of the beaker were thoroughly mixed with an overhead mixer (with shroud removed) until the drug was distributed homogeneously within the food. The food was then distributed in 4.00 g aliquots to the vials with plugs (described above). The food-containing vials were centrifuged in 50 mL tubes at an appropriate speed (approximately 1000 to 1400 g) to just force the “drug food” to the bottom of the feeding vial. The vials were closed with the cotton mity plug until use.
Test flies were transferred individually, under CO2 anesthesia, into 5 mm×65 mm (outside diameter×length) polycarbonate recording tubes with either minimal media or normal fly food on one end and yarn plugs on the other. Sleep parameters were continuously evaluated using the TriKinetics Drosophila activity monitoring system. Sleep is defined as 5 min or more of continuous inactivity, the minimum amount of time to qualify as a single sleep bout. Zeitgeber time (ZT) 0 is defined as the time of lights on and ZT12 is defined as the time of lights off. Mobility (activity) was also monitored and data tabulated based on the number of beam counts and diurnal variations were calculated. The sleep and mobility data were collected and analyzed.

Series [2] concerns PINK1^B9 flies. Description: Fly sleep behavior. The procedure:
2-n-hexyl-LKE-P was dissolved in DMSO and supplemented into a warm solution of minimal media (5% sucrose, 2% agarose and water, 60° C.) to a final concentration of 10, 100 and 1000 μM. Freshly eclosed adult flies were transferred to minimal media containing the drug for one day followed by the experiments. Flies were transferred individually, under CO2 anesthesia, into 5 mm×65 mm (outside diameter×length) polycarbonate recording tubes with food on one end and yarn plugs on the other. Sleep parameters were continuously evaluated using the TriKinetics Drosophila activity monitoring system. Sleep is defined as 5 min or more of continuous inactivity, the minimum amount of time to qualify as a single sleep bout. Zeitgeber time (ZT) 0 is defined as the time of lights on, and ZT12 is defined as the time of lights off. Mobility (activity) was also monitored and data tabulated based on the number of beam counts, and diurnal variations were calculated. The sleep and mobility data were collected and analyzed.

Series [3] relates to gmr-Gal4;UAS-C9orf72polyGR36 flies. Description: Fly eye neurodegeneration assay, C9orf72 ALS model. The procedure: The base for the food was a cornmeal agar product, Nutri-fly BF (Genesee Scientific, Box of 10, 1-liter bags, Cat #66-112). In a 2 L beaker, 1 L of ultrapure water was heated to […], with the stir bar speed set to 600. To the beaker, one bag of Nutri-fly BF was added in small portions. The beaker was covered to maintain temperature (monitored with an inserted thermometer) while stirring as rapidly as possible until the temperature reached 97° C. The food was stirred at this temperature for 10 minutes using a wooden spoon/spatula, then allowed to cool to approximately 65° C. with continuous stirring (magnetic bar). At 65° C., while maintaining constant stirring, 12 mL of Tegosept was added followed by 7 mL of propionic acid solution. To be used as fly maintenance food, the food was allowed to cool to 55° C. and 4 mL of the food was aliquoted (to a depth of approximately 1 inch) into individual vials with mity drosophila plugs (VWR #75813-162 and #10054-506). For use as a drug delivery vehicle, the food was allowed to cool to room temperature while covered with aluminum foil, then sealed with parafilm stored at 4° C. […] To prepare the drug-infused-food, about half of the calculated food, accurately measured, was added to a 250 mL beaker, followed by the drug (no carrier solvent is used). […]

The subject of series [4] is PINK1^B9 flies. Description: Fly longevity (survival) assay. The procedure:
2-n-hexyl-LKE-P was dissolved in DMSO and supplemented into a warm solution of minimal media (5% sucrose, 2% agarose and water, 60° C.) to a final concentration of 10, 100 and 1000 μM. Freshly eclosed adult flies were transferred to minimal media containing the drug for one day followed by the experiments. 15 flies from each group were placed in a vial containing food, kept on its side to prevent the flies from sticking to the media, at 23° C., 60% humidity, under a 12-h light-dark cycle. Food vials were changed every 2-3 days and the dead flies were counted daily. Over 100 flies were prepared for each genotype and the experiments were carried out three times. The number of surviving flies on each day was converted to surviving days for each fly and imported to GraphPad Prism. Kaplan-Meier surviving curves were graphed and statistics was performed by log-rank test on the surviving data to compare the longevity with different treatment.

Turning to `CCCCCCC1=C(P(=O)(O)O)N[C@H](C(=O)OCC)CS1` [2-n-hexyl-LKE-P], the “daytime sleeping time of control flies” value in series [1] (d42-Gal4: UAS-nSyb-GFPxUAS-W1118 control flies) was “did not change the daytime sleeping time of control flies”. Besides, the “number of sleep bouts during the day” value in series [1] (polyGR36 in motor neurons) is reported as “decreased the number of sleep bouts during the day”. The total sleep time entry in series [1] (polyGR36 in motor neurons) is listed as “increased total sleep time”. In series [1] (polyGR36 in motor neurons, drug in food throughout development), the “daytime sleepiness / daytime sleeping time of mutant flies” value is listed as “decreased the daytime sleeping time of mutant flies; also recorded: rescued the daytime sleepiness”. The “sleep of treated wild-type flies versus vehicle-treated wild-type flies” value in the series on PINK1^B9 flies [2] (Day 1 or Day 8) is “No differences were observed”. In addition, the “daytime sleep of PINK1^B9 flies” value is “did not change the sleeping pattern and the daytime sleeping time; also recorded: did not show any changes” in the series on PINK1^B9 flies [2] (day 1, 1000 μM); “decreased the daytime sleeping time; also recorded: reversal of excessive daytime sleep” in the series on PINK1^B9 flies [2] (day 8 (one week), 1000 μM). Also, the “failure to eclose from the pupa” value in series [3] (GR dipeptides at repeat number of 100 in the eyes) is reported as “not able to rescue this phenotype”. The eye phenotype result in series [3] (polyGR36 in eyes, 1 and 2 mM in food throughout lifespan) is on record as “alleviate the eye phenotype in a concentration-dependent manner”. Further, the “survival of PINK1^B9 flies” value in the series on PINK1^B9 flies [4] (10 μM in media) and in the series with PINK1^B9 flies [4] (100 μM in media) was “did not significantly affect the survival” each time. The “lifespan of PINK1^B9 flies” value in the series with PINK1^B9 flies [4] (1000 μM in media) was “extended the lifespan; also recorded: significantly increased the PINK1^B9 lifespan”; with PINK1^B9 flies [4] (dose not stated (summary)) it was “more than double the lifespan”.
